In US20080050413A1, “Medical stent provided with a combination of melatonin and paclitaxel” (priority 2006, published 2008):
“And” between values parts separate entries of the source, which are not always exact repeats. Identical values can stand only once.

What was measured:
HCASMC = experiment: CytoTox-ONE LDH release cytotoxicity assay, HCASMC; assay type: cell-based, human; details: 48 hours, Melatonin 0.2 to 6 mM
Description: (§1) Cytotoxicity experiments were performed with cells cultured on 96-well plates. The CytoTox-ONE™ Assay from Promega was used to assess the membrane integrity of cells. This test is based on a fluorometric method to estimate the number of non viable cells present in multiwell plates by measuring the release of lactate dehydrogenase (LDH) from cells with damaged membranes. Subconfluent cells were incubated for 48 hours with Melatonin at concentrations between 0.2 and 6 mM. During the 48 h Melatonin incubation, the medium was not changed to avoid removal of any detached cells. As a positive control three wells of untreated cells were incubated with lysis buffer (delivered with the assay) before measurement. At the end of the Melatonin incubation period, a volume of CytoTox-ONE reagent equal to the volume of cell culture medium present in each well was added. After 10 min incubation at 22° C. (room temperature), 50 μl of stop solution was added per 100 μl of CytoTox-ONE reagent added. The plate was shaken for 10 seconds and fluorescence was recorded with an excitation wavelength of 560 nm and an emission wavelength of 590 nm (Spectramax M2 fluorescence plate reader, Molecular devices).

[1] = system: HUVEC (Human Umbilical Vein Endothelial Cells); experiment: [3H]-thymidine incorporation, HUVEC stimulated with VEGF-A; assay type: cell-based; details: VEGF A 10 ng/ml 24 hours
Description: To investigate, whether melatonin has similar effects on other cell types, HUVEC (Human Umbilical Vein Endothelial Cells, Promocell) were tested. HUVEC were cultured in the corresponding complete medium (Endothelial Cell Growth Medium: ECGS/H 0.4%, Fetal Calf Serum 2%, Epidermal Growth Factor 0.1 ng/ml, Hydrocortisone 1 μg/ml, basic Fibroblast Factor 1 ng/ml, Amphotericin B 50 ng/ml, Gentamicin 50 μg/ml). 24 hours prior to stimulation, the medium was replaced by a medium containing 2% serum and antibiotics, but devoid of the other complements. Then, HUVEC were stimulated with 10 ng/ml of VEGF-A for 24 hours. HUVEC were incubated for 48 hours with Melatonin and stimulated for 24 hours with VEGF-A at 10 ng/ml. After 24 hours of stimulation, the cells were incubated with radioactive [^3H]-thymidine. Two hour later, the medium was removed and cell-bound DNA was precipitated using 5% TCA (Trichloroacetic acid). Then, [^3H]-thymidine incorporation was measured using a beta-counter.

[2] = system: human coronary artery smooth muscle cells (HCASMC); experiment: CellTiter 96 One solution (MTS) cell proliferation assay, HCASMC; assay type: cell-based
Description: (§2) Human coronary artery endothelial cells (HCAEC) were purchased from Cambrex and human coronary artery smooth muscle cells (HCASMC) were purchased from Promocell. Cells were used for experiments between passage 4 and passage 12. Both cell types were cultured in their respective complete culture medium with the following composition: HCASMC: Smooth Muscle Cell Growth Medium 2: Epidermal Growth Factor (EGF), basic Fibroblast Factor (FGF), Insulin, Fetal Calf Serum (FCS) 5%, Amphotericin B, Gentamicin. Medium was changed every other day. 24 hours prior to growth factor stimulation, the medium was replaced by fresh culture medium, however, without growth factors to increase the cellular sensitivity to the subsequent growth factor stimulation. Subconfluent HCAEC were stimulated with 10 ng/ml of VEGF-A, whereas subconfluent HCASMC were stimulated with 10 ng/ml of PDGF-BB. Likewise, both cell types were stimulated with 25% of human serum (final concentration). All proliferation and cytotoxicity experiments were performed on cells cultured on 96 well plates (Costar). The CellTiter 96 One solution cell proliferation assay from Promega was used to assess cell proliferation in a 96-well plate. This assay makes use of the MTS tetrazolium compound as a cellular substrate. MTS is bioreduced by living cells into a colored formazan product that is soluble in tissue culture medium and absorbs light at 490 nm. The quantity of formazan produced is directly proportional to the number of living cells in culture. After 24 h stimulation, 20 μl of MTS reagent was added to the cells cultured in 100 μl of medium per well. After 2 to 4 hours of incubation at 37° C., 5% CO2, the absorbance at 490 nm was recorded using a 96-well plate reader (Tecan).

[3] = system: human coronary artery endothelial cells (HCAEC); experiment: CellTiter 96 One solution (MTS) cell proliferation assay, HCAEC; assay type: cell-based
Description: as §2, with “HCAEC: Endothelial” for “HCASMC: Smooth Muscle Cell”, “Media-2 MV: hEGF, Hydrocortisone, GA-1000, FBS” for “Medium 2: Epidermal Growth Factor (EGF), basic Fibroblast Factor (FGF), Insulin, Fetal Calf Serum (FCS)”, “VEGF, hFGF-B, R3-IGF-1, Ascorbic Acid” for “Amphotericin B, Gentamicin.”

HCAEC [4] = experiment: Chemotaxis towards VEGF-A, modified Boyden chamber, HCAEC; assay type: cell-based, human; details: 2 mM Melatonin for 48 hours; VEGF-A 10 ng/ml; migration 4 hours; performed only once
Description: Chemotaxis experiments were performed using a modified Boyden chamber. The apparatus consists of two multi-well chambers separated by a filter containing pores of uniform size. A solution containing a chemokine or chemotactic factor is placed in the lower/bottom chamber and a cell suspension is placed in the upper chamber. Cells can migrate through the pores across the filter and towards the chemoattractant in the lower chamber. Cells that migrated across the filter and remain attached to the lower side of the membrane are counted. Data are expressed in terms of migration index: the number of cells that migrated in response to agonist stimulation compared to the number of cells that migrated randomly, i.e. to medium only. Chemotaxis experiments so far were only performed with HCAEC. For these cells a 25×80 mm polycarbonate filter, […] (PVP) free was used (Whatman) with a pore size of […]. Before migration the filter was coated with collagen. Endothelial cells were incubated with Melatonin at 2 mM prior to and during migration. […] Cells were stimulated with VEGF-A at 10 ng/ml. Cells were allowed to migrate for 4 hours at 37° C./5% CO2. At the end of migration, cells were fixed on the filter, stained with Giemsa and counted using a regular optic microscope.

HCAEC [5] = experiment: CytoTox-ONE LDH release cytotoxicity assay, HCAEC; assay type: cell-based, human; details: 48 hours, Melatonin 0.2 to 6 mM
Description: as §1

COc1ccc2[nH]cc(CCNC(C)=O)c2c1 [Melatonin, N-acetyl-5-methoxytryptamine]
cytotoxic effect (LDH release) (HCASMC): does not induce any detectable cytotoxic effect
effect on HUVEC ([3H]-thymidine incorporation) ([1]; 0.2 mM Melatonin, 48 hours): inhibitory effect
VEGF-A induced [3H]-thymidine incorporation ([1]; Melatonin 48 hours): completely inhibited
effect on number of smooth muscle cells ([2]; 1 mM Melatonin, 24 hours pre-treatment, PDGF BB 10 ng/ml 24 h): significant decrease in the number of smooth muscle cells
concentration at which proliferation is strongly inhibited ([2]; HCASMC): higher than 0.2 mM
effect on proliferation of HCASMC ([2]; Melatonin up to 0.1 mM, PDGF BB 10 ng/ml 24 h): no significant effect
concentration of maximal inhibitory effect ([2]; tested up to 10 mM): 5 mM
concentration at which proliferation is strongly inhibited ([3]; HCAEC): higher than 0.2 mM
effect on cell number ([3]; Melatonin between 1 mM and 6 mM): dramatic decrease in cell number
concentration of maximal effect ([3]; tested 1 μM to 6 mM): 3 mM and 6 mM
sensitivity of HCAEC to Melatonin ([3]; up to 0.1 mM Melatonin): not sensitive
effect on chemotactic response towards VEGF-A (HCAEC [4]): did not have any significant effect
cytotoxic effect (LDH release) (HCAEC [5]): does not induce any detectable cytotoxic effect
